In general, GI50 refers to the concentration at which growth is held to half of that of the control. In general, TGI refers to the concentration at which net growth stops.

Values joined by “and” are separate entries in the source; they are usually repeats but may differ in a detail not shown here. Equal entries are not always repeated.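 In this assay, cells in 96-well plates receive the compound at five concentrations for 48 hours. Endpoints are linearly interpolated between the surrounding concentrations. GI50 = concentration required for 50% inhibition of growth. TGI is the concentration that stops growth completely.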

Experimental findings from PubChem BioAssay (NCI) are described below.

Some test systems named below: CCRF-CEM leukemia; HT29 colon; K-562 leukemia; MDA-MB-231 breast; SK-MEL-2 melanoma; SN12C renal; SNB-19 CNS; TK-10 renal; U251 CNS; UACC-62 melanoma.
Common to all, as to assay: DTP human tumour cell line panel, 48 h

For `Nc1ncnc2c1c(-c1cccc(OCc3ccccc3)c1)cn2C1CC(CN2CCC2)C1` (stereo not given), the GI50 in the test with CCRF-CEM leukemia is 2.58 µM and 2.97 µM; with HT29 colon, 0.0575 µM and 0.173 µM; in the test with K-562 leukemia, 1.71 µM and 2.08 µM; in the test on MDA-MB-231 breast, 2.12 µM and 3.82 µM; with SK-MEL-2 melanoma it was 1.58 µM and 2.21 µM; in the test on SN12C renal, 4.59 µM and 5.75 µM. In addition, the GI50 in the test with SNB-19 CNS was 6.37 µM and 7.05 µM; with TK-10 renal, 2.02 µM and 2.85 µM; in the test on U251 CNS, 1.82 µM and 3 µM; in the test on UACC-62 melanoma, 1.74 µM and 1.5 µM. Besides, the TGI in the test on CCRF-CEM leukemia was 7.99 µM and > 10 µM; with HT29 colon it was 1.84 µM and 2.05 µM; with K-562 leukemia, 4.43 µM and 6.32 µM; with MDA-MB-231 breast it was 6.14 µM and > 10 µM; in the test on SK-MEL-2 melanoma, 3.36 µM and 6.1 µM; in the test on SN12C renal it was 18 µM and > 10 µM. Moreover, the TGI was 20.5 µM and > 10 µM in the test with SNB-19 CNS; 7.74 µM and > 10 µM in the test with TK-10 renal; 3.94 µM and > 10 µM with U251 CNS; 3.58 µM and 3.33 µM in the test on UACC-62 melanoma.
Regarding `Clc1ccc(C2=Nn3c(nnc3-c3cc(Cl)cc(Cl)c3Cl)SC2)cc1`, the GI50 in the test with CCRF-CEM leukemia is 10.7 µM; in the test with HT29 colon, 9.26 µM; with K-562 leukemia, 3.4 µM; in the test on MDA-MB-231 breast it was 23.3 µM; with SK-MEL-2 melanoma, 41.7 µM; in the test with SN12C renal, 75 µM. The GI50 is 15.6 µM in the test on SNB-19 CNS, 15.9 µM with TK-10 renal, 12.7 µM in the test with U251 CNS and 21.6 µM in the test on UACC-62 melanoma. The TGI with CCRF-CEM leukemia is 26 µM; in the test on HT29 colon, more than 100 µM; in the test on K-562 leukemia, 35.1 µM; with MDA-MB-231 breast, 97.1 µM; with SK-MEL-2 melanoma, more than 100 µM; in the test with SN12C renal, more than 100 µM. For the same compound, the TGI in the test with SNB-19 CNS came out at 36.2 µM; in the test on TK-10 renal it was 35.9 µM; with U251 CNS, 28.3 µM; with UACC-62 melanoma it was 70.9 µM.
Take `CCN(CC)CCCC(C)Nc1nc(C)cc(Nc2ccc3nc(C)cc(N)c3c2)n1` (stereo not given): the GI50 with CCRF-CEM leukemia was 15.3 µM; in the test on HT29 colon it was 24.4 µM; in the test with K-562 leukemia, 27.1 µM; with MDA-MB-231 breast it was 29 µM; in the test on SK-MEL-2 melanoma, 56.6 µM; with SN12C renal it was 37 µM. Further, the GI50 in the test with SNB-19 CNS was 24.7 µM; in the test with TK-10 renal, more than 100 µM; with U251 CNS, 26.4 µM; in the test on UACC-62 melanoma, 39.2 µM. Besides, the TGI is 41.6 µM in the test on CCRF-CEM leukemia; 75.2 µM with HT29 colon; 51.5 µM with K-562 leukemia; 85.8 µM in the test on MDA-MB-231 breast; more than 100 µM in the test with SK-MEL-2 melanoma; more than 100 µM in the test on SN12C renal. The TGI with SNB-19 CNS was 97 µM; with TK-10 renal, more than 100 µM; with U251 CNS it was 98.7 µM; with UACC-62 melanoma it was more than 100 µM.
For the compound `N#CC(C#N)N=Nc1ccc(Br)cc1`, the GI50 in the test with CCRF-CEM leukemia was 1.53 µM; with HT29 colon it was 3.39 µM; in the test on K-562 leukemia it was 3.02 µM; with MDA-MB-231 breast, 1.69 µM; in the test with SK-MEL-2 melanoma, 8.97 µM; in the test on SN12C renal it was 2.64 µM. Besides, the GI50 is 27.5 µM in the test on SNB-19 CNS, 4.04 µM in the test with TK-10 renal, 16.2 µM in the test with U251 CNS and 1.91 µM with UACC-62 melanoma. Besides, the TGI was 10.7 µM in the test on CCRF-CEM leukemia; more than 38.5 µM in the test on HT29 colon; more than 100 µM in the test on K-562 leukemia; 7.04 µM in the test on MDA-MB-231 breast; 36.1 µM in the test on SK-MEL-2 melanoma; 9.51 µM in the test on SN12C renal. Further, the TGI in the test with SNB-19 CNS is more than 100 µM; in the test with TK-10 renal, 43.2 µM; in the test with U251 CNS it was more than 100 µM; with UACC-62 melanoma, 10.9 µM.
For `C[C@@H]1Cc2c([nH]c3ccccc23)[C@@H](c2c(F)cc(NC3CN(CCCF)C3)cc2F)N1CC(F)(F)CO`, the GI50 is 3.44 µM in the test on CCRF-CEM leukemia; 3.7 µM in the test on HT29 colon; 3.24 µM with K-562 leukemia; 5.24 µM with MDA-MB-231 breast; 4.37 µM in the test on SK-MEL-2 melanoma; 9.69 µM with SN12C renal. Further, the GI50 in the test on SNB-19 CNS was 10.3 µM; in the test with TK-10 renal, 14.4 µM; in the test on U251 CNS, 6.1 µM; in the test with UACC-62 melanoma, 2.35 µM. The TGI in the test with CCRF-CEM leukemia worked out at 15.3 µM; with HT29 colon it was 15.3 µM; with K-562 leukemia it was 11.8 µM; with MDA-MB-231 breast it was 20.8 µM; in the test with SK-MEL-2 melanoma, 16.5 µM; in the test with SN12C renal, 23.1 µM. The TGI with SNB-19 CNS worked out at 23.6 µM; in the test with TK-10 renal, 29.3 µM; in the test with U251 CNS, 21.2 µM; in the test on UACC-62 melanoma it was 5.77 µM.
For `CN1CCN(c2ccc(Nc3nc(N)c(C(=O)c4ccc5c(c4)OCCO5)s3)cc2)CC1`, the GI50 in the test on CCRF-CEM leukemia is 4.66 µM; in the test with HT29 colon, 2.68 µM; in the test with K-562 leukemia it was 2.43 µM; with MDA-MB-231 breast, 3.22 µM; with SK-MEL-2 melanoma, 4.77 µM; in the test with SN12C renal, 3.33 µM. The GI50 in the test on SNB-19 CNS was 4.14 µM; in the test on TK-10 renal, 3.14 µM; in the test on U251 CNS, 2.83 µM; in the test with UACC-62 melanoma, 4.19 µM. The TGI with CCRF-CEM leukemia was 23.9 µM; in the test with HT29 colon it was 11.7 µM; in the test on K-562 leukemia it was 18.3 µM; in the test on MDA-MB-231 breast, 9.94 µM; in the test on SK-MEL-2 melanoma, 15.2 µM; with SN12C renal, more than 25 µM. For the same compound, the TGI in the test with SNB-19 CNS is 24.3 µM; with TK-10 renal, 10.1 µM; in the test on U251 CNS it was 11 µM; in the test with UACC-62 melanoma it was 9.35 µM.
As to `CN(C)C/C=C/C(=O)Nc1cc2c(Nc3ccc(F)c(Cl)c3F)ncnc2cc1OCCOC(F)F`, the GI50 with CCRF-CEM leukemia was 2.47 µM; in the test with HT29 colon it was 0.422 µM; in the test on K-562 leukemia it was 0.519 µM; in the test on MDA-MB-231 breast it was 0.472 µM; in the test with SK-MEL-2 melanoma, 1.46 µM; with SN12C renal it was 0.136 µM. The GI50 in the test on SNB-19 CNS is 1.57 µM; in the test with TK-10 renal it was less than 0.01 µM; in the test on U251 CNS, 1.99 µM; in the test on UACC-62 melanoma, 1.45 µM. The TGI in the test on CCRF-CEM leukemia came to 13.3 µM; with HT29 colon it was 5 µM; in the test with K-562 leukemia it was 11.3 µM; with MDA-MB-231 breast, 6.53 µM; with SK-MEL-2 melanoma, 3.36 µM; in the test with SN12C renal, 4.52 µM. The TGI in the test with SNB-19 CNS came to 11.6 µM; in the test on TK-10 renal, 0.738 µM; in the test on U251 CNS it was 9.23 µM; in the test on UACC-62 melanoma, 4.46 µM.
In the case of `CN1C(=O)[C@@H](NC(=O)[C@H](CCC(F)(F)F)[C@H](CCC(F)(F)F)C(N)=O)N=C(c2ccccc2)c2ccccc21`, the GI50 in the test with CCRF-CEM leukemia is 55 µM; with HT29 colon, more than 100 µM; in the test with K-562 leukemia, more than 100 µM; with MDA-MB-231 breast it was 43.7 µM; with SK-MEL-2 melanoma, more than 100 µM; with SN12C renal, more than 100 µM. In addition, the GI50 is more than 100 µM with SNB-19 CNS, more than 100 µM in the test on TK-10 renal, more than 100 µM in the test with U251 CNS and 35.7 µM in the test on UACC-62 melanoma. The TGI with CCRF-CEM leukemia, in the test with HT29 colon, in the test with K-562 leukemia, in the test with MDA-MB-231 breast, in the test with SK-MEL-2 melanoma and with SN12C renal was more than 100 µM throughout. Further, the TGI in the test on SNB-19 CNS, in the test on TK-10 renal, in the test on U251 CNS and in the test with UACC-62 melanoma was more than 100 µM throughout.
Take `CCn1cc(-c2ccnc3[nH]ccc23)c(-c2cccc(NC(=O)Nc3ccc(OCc4ccccc4)cc3)c2)n1`: the GI50 is 11.5 µM in the test with CCRF-CEM leukemia; 4.18 µM with HT29 colon; 4.72 µM in the test on K-562 leukemia; 6.57 µM in the test on MDA-MB-231 breast; 8.14 µM in the test on SK-MEL-2 melanoma; more than 25 µM with SN12C renal. Besides, the GI50 was more than 23.9 µM in the test with SNB-19 CNS, 24.8 µM in the test on TK-10 renal, 4.75 µM in the test with U251 CNS and 5.89 µM with UACC-62 melanoma. The TGI in the test with CCRF-CEM leukemia was more than 25 µM; in the test on HT29 colon, more than 20.3 µM; in the test with K-562 leukemia, more than 25 µM; in the test with MDA-MB-231 breast it was more than 25 µM; in the test with SK-MEL-2 melanoma, more than 25 µM; in the test with SN12C renal it was more than 25 µM. In addition, the TGI with SNB-19 CNS, with TK-10 renal, with U251 CNS and with UACC-62 melanoma was more than 25 µM throughout.
As for `COc1ccc(/C=C2\CC(C)CC3C2=NN(C(C)=O)C3c2ccc(OC)cc2)cc1` (stereo not given), the GI50 was 22 µM in the test with CCRF-CEM leukemia; 9.08 µM in the test with HT29 colon; 10.1 µM with K-562 leukemia; 16.4 µM with MDA-MB-231 breast; 30.3 µM with SK-MEL-2 melanoma; 18.4 µM with SN12C renal. Further, the GI50 in the test on SNB-19 CNS was 27.6 µM; in the test on TK-10 renal, 30.3 µM; with U251 CNS, 14.4 µM; in the test on UACC-62 melanoma, 17 µM. The TGI with CCRF-CEM leukemia is more than 100 µM; with HT29 colon, 40.2 µM; in the test on K-562 leukemia, 96.3 µM; in the test with MDA-MB-231 breast it was 35.7 µM; in the test with SK-MEL-2 melanoma it was more than 100 µM; with SN12C renal, 38.7 µM. In addition, the TGI in the test on SNB-19 CNS was more than 100 µM; with TK-10 renal it was more than 100 µM; with U251 CNS it was 31 µM; with UACC-62 melanoma, 35.3 µM.
As for `Fc1ccc(-c2ncn(C3CCNCC3)c2-c2ccnc(Oc3ccc(F)c(F)c3)n2)cc1`, the GI50 was more than 14.9 µM in the test with CCRF-CEM leukemia; 4.36 µM in the test on HT29 colon; 7.56 µM in the test on K-562 leukemia; 5.59 µM in the test with MDA-MB-231 breast; 6.84 µM with SK-MEL-2 melanoma; 6.24 µM with SN12C renal. Besides, the GI50 in the test with SNB-19 CNS is 12.2 µM; in the test on TK-10 renal, 5.09 µM; with U251 CNS, 5 µM; in the test on UACC-62 melanoma it was 4.99 µM. Moreover, the TGI in the test on CCRF-CEM leukemia is 24.2 µM; with HT29 colon it was 8.12 µM; in the test with K-562 leukemia it was more than 19.9 µM; in the test with MDA-MB-231 breast, 12 µM; in the test on SK-MEL-2 melanoma, 14.5 µM; with SN12C renal it was more than 14.6 µM. Besides, the TGI in the test on SNB-19 CNS was more than 25 µM; with TK-10 renal it was 11.1 µM; in the test on U251 CNS, 11.7 µM; in the test with UACC-62 melanoma, 10.3 µM.
